Values quoted from earlier work as cited in US20180103657A1, “FROZEN CONFECTION” (Conopco, Inc., d/b/a UNILEVER, priority 2015, published 2018).

Conditions: partition coefficient at 20 degrees centigrade

Log P [flavour compounds]: 1.8
Compound: CCCC(=O)OCC [Ethyl butyrate]
